From US20040106545A1, “Compounds and methods for modulating cell adhesion” (priority 1996, published 2004)
Read-outs that look alike come from different tables or passages of the source. Positions of bridges follow the written chain, without caps; N, C: chain ends. Residues, ends and D or L forms follow the SMILES beside them.

Key:
HMVEC = format: cell-based, human; conditions: 3 h
Procedure, shortened: (§1)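 Peptide concentrations reached 100 μM. Both an MTT cytotoxicity read-out and ^3H-thymidine incorporation for proliferation were used.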

HUVEC = format: cell-based, human; conditions: 3 h
Procedure, shortened: as §1

IAFp2 = format: cell-based, human; conditions: 3 h
Procedure, shortened: as §1

MDA-MB231 [1] = format: cell-based, human; conditions: 3 h
Procedure, shortened: as §1

PC-3 [2] = format: cell-based, human; conditions: 3 h
Procedure, shortened: as §1

WI-38 = format: cell-based, human; conditions: 3 h
Procedure, shortened: as §1

MDA-MB231 [3] = assay: Cytotoxicity, MTT assay, MDA-MB231; format: cell-based, human
Procedure, shortened: as §1

PC-3 [4] = assay: Cytotoxicity, MTT assay, PC-3; format: cell-based, human
Procedure, shortened: as §1

Solubility in RPMI = format: physicochemical; conditions: 1 mM
N-cadherin [5] = molecular target: T1, N-cadherin (Gallus gallus, UniProt P10288); assay: Neurite outgrowth inhibition, rat neurons (Example 21); format: cell-based; conditions: read-out: % Inhibition of neurite outgrowth; 250 μg/mL
T1 construct: expressed in transfected cells; host or cells: 3T3 fibroblasts (monolayer)
T1 sequence (P10288 165-912): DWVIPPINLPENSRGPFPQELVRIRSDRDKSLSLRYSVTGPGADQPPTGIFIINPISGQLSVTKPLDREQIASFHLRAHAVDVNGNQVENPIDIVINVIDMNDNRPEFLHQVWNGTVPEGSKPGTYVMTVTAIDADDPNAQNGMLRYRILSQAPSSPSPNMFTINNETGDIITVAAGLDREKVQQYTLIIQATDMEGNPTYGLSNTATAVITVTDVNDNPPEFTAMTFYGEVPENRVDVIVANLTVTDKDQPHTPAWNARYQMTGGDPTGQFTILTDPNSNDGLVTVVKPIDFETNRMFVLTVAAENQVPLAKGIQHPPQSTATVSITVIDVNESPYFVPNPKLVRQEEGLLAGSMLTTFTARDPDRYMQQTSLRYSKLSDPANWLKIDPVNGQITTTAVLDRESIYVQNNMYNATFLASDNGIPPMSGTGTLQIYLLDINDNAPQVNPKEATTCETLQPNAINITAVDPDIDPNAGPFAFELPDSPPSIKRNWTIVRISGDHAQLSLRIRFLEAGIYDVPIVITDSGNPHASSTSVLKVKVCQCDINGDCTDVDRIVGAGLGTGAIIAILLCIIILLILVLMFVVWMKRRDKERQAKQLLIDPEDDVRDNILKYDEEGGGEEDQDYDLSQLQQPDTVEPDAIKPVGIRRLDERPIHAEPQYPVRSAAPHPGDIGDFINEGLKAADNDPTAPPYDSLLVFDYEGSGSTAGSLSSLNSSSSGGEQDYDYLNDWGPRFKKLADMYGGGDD

N-cadherin [6] = molecular target: T2, N-cadherin (Homo sapiens, UniProt P19022); conditions: cited from earlier work
T2 sequence (P19022 160-906): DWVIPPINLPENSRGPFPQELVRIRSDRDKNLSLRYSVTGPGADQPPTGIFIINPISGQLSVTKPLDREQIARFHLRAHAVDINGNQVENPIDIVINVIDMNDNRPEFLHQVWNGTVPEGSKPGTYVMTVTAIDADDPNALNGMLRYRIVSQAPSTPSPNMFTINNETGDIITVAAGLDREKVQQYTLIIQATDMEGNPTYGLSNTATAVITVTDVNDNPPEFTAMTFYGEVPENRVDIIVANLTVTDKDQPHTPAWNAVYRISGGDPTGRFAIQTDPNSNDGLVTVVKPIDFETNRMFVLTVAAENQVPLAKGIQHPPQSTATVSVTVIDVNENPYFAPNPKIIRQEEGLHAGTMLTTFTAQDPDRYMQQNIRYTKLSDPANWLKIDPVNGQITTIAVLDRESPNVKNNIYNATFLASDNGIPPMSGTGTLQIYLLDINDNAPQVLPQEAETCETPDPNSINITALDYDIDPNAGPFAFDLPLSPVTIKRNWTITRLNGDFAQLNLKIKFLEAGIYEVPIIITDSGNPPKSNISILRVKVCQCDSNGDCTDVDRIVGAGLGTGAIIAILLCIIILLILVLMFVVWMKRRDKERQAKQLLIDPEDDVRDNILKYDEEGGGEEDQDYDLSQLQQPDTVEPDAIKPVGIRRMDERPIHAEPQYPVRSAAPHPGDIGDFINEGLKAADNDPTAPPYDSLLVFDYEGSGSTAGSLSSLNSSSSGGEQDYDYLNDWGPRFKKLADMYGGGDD

IC50 (HMVEC)	IC50 (IAFp2)	IC50 (MDA-MB231 [1])	IC50 (PC-3 [2])	solubility in RPMI (Solubility in RPMI)	inhibition at 250 µg/mL (N-cadherin [5])	Compound	IC50 (HUVEC)	IC50 (WI-38)	IC50 (MDA-MB231 [3])	IC50 (PC-3 [4])	stimulation of neurite outgrowth (N-cadherin [6])
> 100 µM	> 100 µM	52 µM	> 100 µM	*Incompletely soluble in RPMI at 1 mM	0%	CC(=O)N[C@H]1CSSC[C@@H](C(N)=O)NC(=O)[C@H](CO)NC(=O)[C@H](C(C)C)NC(=O)[C@H](C)NC(=O)[C@H](Cc2c[nH]cn2)NC1=O [N—Ac—CHAVSC—NH2, N-Ac-Cys-His-Ala-Val-Ser-Cys-NH2] (Ac-CHAVSC-NH2; disulfide 1-6 (inferred))	57 µM	> 100 µM	> 100 µM	> 100 µM	–
–	–	–	–	–	–	N—AC-CHAVDINGHAVDIC-NH2: cyclic peptide presenting two HAV motifs in an antiparallel fashion (Williams et al. 2002) (Ac-CHAVDINGHAVDIC-NH2; disulfide 1-14 (inferred))	–	–	–	–	capable of stimulating neurite outgrowth
